# From patent publication US8598356B2, “Heteroaryl-substituted urea modulators of fatty acid amide hydrolase” (Janssen Pharmaceutica NV, priority 2008, dated 2013)
# Key:
# Human FAAH = biological target: T1, Human FAAH (Homo sapiens, UniProt O00519); assay: Assay Method 1: FAAH assay, hydrolysis of 3H-anandamide by cell homogenate; assay type: biochemical; conditions: T84 or transfected SK-N-MC cell homogenate, 3H-AEA 80 nM, rt 1 h, average of results obtained
# T1 construct: expressed in transfected cells; alternatively T84 frozen cell pellets
# T1 sequence (O00519 1-579): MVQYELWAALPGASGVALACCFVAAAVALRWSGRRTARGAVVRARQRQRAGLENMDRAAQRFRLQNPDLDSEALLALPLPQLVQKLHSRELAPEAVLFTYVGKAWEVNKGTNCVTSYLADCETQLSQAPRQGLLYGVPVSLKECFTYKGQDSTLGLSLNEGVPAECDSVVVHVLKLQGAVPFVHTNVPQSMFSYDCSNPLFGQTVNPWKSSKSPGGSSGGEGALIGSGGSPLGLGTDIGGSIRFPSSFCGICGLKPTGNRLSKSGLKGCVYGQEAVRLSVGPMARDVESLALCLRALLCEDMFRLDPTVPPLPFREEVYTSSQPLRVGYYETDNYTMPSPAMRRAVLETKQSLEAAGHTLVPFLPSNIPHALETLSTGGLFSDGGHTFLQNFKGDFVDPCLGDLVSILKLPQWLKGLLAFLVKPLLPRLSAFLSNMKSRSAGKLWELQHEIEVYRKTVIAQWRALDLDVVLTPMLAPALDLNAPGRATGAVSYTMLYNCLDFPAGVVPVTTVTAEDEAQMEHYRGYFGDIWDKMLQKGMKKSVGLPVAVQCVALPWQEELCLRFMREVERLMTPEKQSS
# Procedure: A. Transfection of Cells with Human FAAH
# (§1) A 10-cm tissue culture dish with a confluent monolayer of SK-N-MC cells was split 2 days (d) prior to transfection. Using sterile technique, the media was removed and the cells were detached from the dish by the addition of trypsin. One fifth of the cells were then placed onto a new 10-cm dish. Cells were grown in a 37° C. incubator with 5% CO2 in Minimal Essential Media Eagle with 10% Fetal Bovine Serum. After 2 d, cells were approximately 80% confluent. These cells were removed from the dish with trypsin and pelleted in a clinical centrifuge. The pellet was re-suspended in 400 μL complete media and transferred to an electroporation cuvette with a 0.4 cm gap between the electrodes. Supercoiled human FAAH cDNA (1 μg) was added to the cells and mixed. The voltage for the electroporation was set at 0.25 kV, and the capacitance was set at 960 μF. After electroporation, the cells were diluted into complete media (10 mL) and plated onto four 10-cm dishes. Because of the variability in the efficiency of electroporation, four different concentrations of cells were plated. The ratios used were 1:20, 1:10, and 1:5, with the remainder of the cells being added to the fourth dish. The cells were allowed to recover for 24 h before adding the selection media (complete media with 600 μg/mL G418). After 10 d, dishes were analyzed for surviving colonies of cells. Dishes with well-isolated colonies were used. Cells from individual colonies were isolated and tested.
# (§2) T84 frozen cell pellets or transfected SK-N-MC cells (contents of 1×15 cm culture dishes) were homogenized in 50 mL of FAAH assay buffer (125 mM Tris, 1 mM EDTA, 0.2% Glycerol, 0.02% Triton X-100, 0.4 mM Hepes, pH 9). The assay mixture consisted of 50 μL of the cell homogenate, 10 μL of the test compound, and 40 μL of anandamide [1-^3H-ethanolamine] (^3H-AEA, Perkin-Elmer, 10.3 Ci/mmol), which was added last, for a final tracer concentration of 80 nM. The reaction mixture was incubated at rt for 1 h. During the incubation, 96-well Multiscreen filter plates (catalog number MAFCNOB50; Millipore, Bedford, Mass., USA) were loaded with 25 μL of activated charcoal (Multiscreen column loader, catalog number MACL09625, Millipore) and washed once with 100 μL of MeOH. Also during the incubation, 96-well DYNEX MicroLite plates (catalog number NL510410) were loaded with 100 μL of MicroScint40 (catalog number 6013641, Packard Bioscience, Meriden, Conn., USA). After the 1 h incubation, 60 μL of the reaction mixture were transferred to the charcoal plates, which were then assembled on top of the DYNEX plates using
# Centrifuge Alignment Frames (catalog number MACF09604, Millipore). The unbound labeled ethanolamine was centrifuged through to the bottom plate (5 min at 2000 rpm), which was preloaded with the scintillant, as described above. The plates were sealed and left at rt for 1 h before counting on a Hewlett Packard TopCount.
# (§3) Results for compounds tested in these assays are summarized in Table 1, as an average of results obtained. Compounds were tested in free base, hydrochloride salt, and/or trifluoroacetic acid salt forms. Where activity is shown as greater than (>) a particular value, the value is the solubility limit of the compound in the assay medium or the highest concentration tested in the assay.
# Rat FAAH = biological target: T2, Rat FAAH (Rattus norvegicus, UniProt P97612); assay: Assay Method 2: FAAH assay, hydrolysis of 3H-anandamide by cell homogenate; assay type: biochemical; conditions: T84 or transfected SK-N-MC cell homogenate, 3H-AEA 80 nM, rt 1 h, average of results obtained
# T2 construct: expressed in transfected cells
# T2 sequence (P97612 1-579): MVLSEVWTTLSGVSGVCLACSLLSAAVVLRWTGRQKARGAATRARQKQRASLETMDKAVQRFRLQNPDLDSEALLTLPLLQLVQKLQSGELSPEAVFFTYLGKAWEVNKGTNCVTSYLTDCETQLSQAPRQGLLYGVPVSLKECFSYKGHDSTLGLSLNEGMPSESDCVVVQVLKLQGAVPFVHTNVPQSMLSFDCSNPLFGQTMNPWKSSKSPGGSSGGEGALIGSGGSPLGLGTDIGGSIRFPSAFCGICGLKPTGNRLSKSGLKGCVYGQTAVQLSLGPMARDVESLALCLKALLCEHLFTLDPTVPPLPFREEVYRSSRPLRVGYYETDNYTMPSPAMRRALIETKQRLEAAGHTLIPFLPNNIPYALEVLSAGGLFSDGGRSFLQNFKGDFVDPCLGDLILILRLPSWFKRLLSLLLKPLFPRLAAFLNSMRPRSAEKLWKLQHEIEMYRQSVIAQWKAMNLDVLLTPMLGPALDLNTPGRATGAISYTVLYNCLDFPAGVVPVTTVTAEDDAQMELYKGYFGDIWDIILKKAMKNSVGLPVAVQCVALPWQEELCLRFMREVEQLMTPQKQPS
# Procedure: A. Transfection of Cells with Rat FAAH
# as §1, with “rat” for “human”, “[…]” for “960 μF.”
# as §2, with “25” for “25 μL”, “using Centrifuge Alignment Frames (catalog number MACF09604, Millipore). The unbound labeled ethanolamine was centrifuged through to the bottom plate (5 min at 2000 rpm), which was preloaded with the scintillant, as described above. The plates were sealed and left at rt for 1 h before counting on a Hewlett Packard TopCount.” for “using”
# as §3
IC50 (Human FAAH),IC50 (Rat FAAH),SMILES
2000 nM,183 nM,"O=C(Nc1noc2ccccc12)N1CCCC(Cc2ccc(C(F)(F)F)cc2)C1 (centres unmarked) [Example 5, N-1,2-Benzisoxazol-3-yl-3-{[4-(trifluoromethyl)-phenyl]-methyl}-piperidine-1-carboxamide]"
87 nM,8 nM,"O=C(Nc1cnccc1Cl)N1CCCC(Cc2cccc(Oc3ccc(F)cc3)c2)C1 (centres unmarked) [Example 11, 3-[3-(4-Fluoro-phenoxy)-benzyl]-piperidine-1-carboxylic acid (4-chloro-pyridin-3-yl)-amide]"
2000 nM,152 nM,"O=C(Nc1noc2ccccc12)N1CCCC(Cc2ccc(F)cc2)C1 (centres unmarked) [Example 7, N-1,2-Benzisoxazol-3-yl-3-[(4-fluorophenyl)methyl]piperidine-1-carboxamide]"
10000 nM,> 10000 nM,"O=C(Nc1ccncn1)N1CCCC(Cc2ccc(F)cc2)C1 (centres unmarked) [Example 4, 3-[4(4-Fluorophenyl)methyl]-N-pyrimidin-4-ylpiperidine-1-carboxamide]"
